From US20210212967A1, “Treatment of Irritable Bowel Syndrome” (Gruenenthal GmbH, priority 2010, published 2021)

What was measured:
[1] = target: recombinantly produced p-opioid receptor (Homo sapiens, UniProt P35372); settings: relative to morphine; cited from earlier work
[2] = clinical studies; cited from earlier work
[3] = tested on: isolated guinea pig ileum; test: Twitch contractions of the electrically stimulated isolated guinea pig ileum
Protocol: It was investigated whether tapentadol is able to modulate gastrointestinal motility.
Male guinea pigs (PBW, Charles River, KiBlegg, FRG) weighing 250-350 g were used for the study. The animals were kept under standard housing conditions: light/dark rhythm (06.00-18.00 h light, 18.00-6.00 h dark); room temperature 22±2° C., rel. air humidity 55±5%; 15 air changes per hour, air movement <0,2 m/sec. The animals were given water and an exclusive diet of “Herilan RM 204” (Eggersmann Company, Rinteln/FRG) ad libitum. Before experimental preparation they were kept in groups of up to 5 animals in type IV Makrolon cages (Ebeco Company, Castrop-Rauxel, FRG). There were at least 4 days between delivery and test day.
Tapentadol hydrochloride was dissolved in aqua bidest. Final concentrations in the organ bath ranged from 3·10^−8 to 10^−5 M (cumulative drug application). As opioid antagonist naloxone (10^−6 M) was used.
A four-compartment organ bath (Dept. Biotechnology, Grunenthal GmbH) was employed with 20 ml acrylic glass compartments, organ supports and force transducers (F10 Force transducers, Type 375, HSE, FRG) for the determination of isometric contractions. The organ baths were filled and emptied by means of a semi-automatic dosing arrangement. The nutrient medium in the organ baths was kept at room temperature. In a nutrient storage chamber and in the organ baths the nutrient solution was gassed with carbogen through a frit from 30 min before commencement of the experiment.
The nutrient solution had the following composition:
Parameter: contraction force [g]
Guinea pigs were killed in CO2-atmosphere and the ileum was dissected free from adhering tissue, removed and suspended in the organ bath. After an incubation period of at least 30 min, transmural stimulation pulses were delivered with a duration of 1 ms and an amplitude of 180 mA at 0.03 Hz (Stimulator A310, WPI, FRG) and isometric contractions (Twitch reactions) were recorded. The preparations were pre-tensioned with 1 g. […]
Data were calculated as the mean stimulated contraction force during the period of 4 to 6 min. p. appl. and expressed as percentage of the pre-value. […] All results were expressed as means±s.e.m. of 4 single experiments. For determination of 1050 values, regression lines (y=f log x) were constructed and 1050 values with s.e.m. were calculated using a computer-assisted regression analysis program (Grünenthal GmbH). The reversal of the test compound's activity by the antagonist was expressed as the percentage of the effects of the combination of agonist and antagonist referred to the effects of the test compound alone in the highest concentration according to the following formula: […]

[4] = tested on: visceral hyperalgesia induced by rectal administration of mustard oil in mice; test: Mustard oil colitis (visceral pain), prophylactic treatment; type: in vivo; settings: i.v. 5 min before mustard oil
Excerpt: (§1) The effects of tapentadol hydrochloride on visceral hyperalgesia were studied, which was induced by rectal administration of mustard oil in mice (according to Laird J M, Martinez-Caro L, Garcia-Nicas E, Cervero F. (2001) A new model of visceral pain and referred hyperalgesia in the mouse. Pain 92: 335-42). The typical visceral pain behaviour was quantified in three parameters: During the first minutes after mustard oil administration spontaneous visceral pain behaviour occurs. Following this period of spontaneous pain, referred allodynia and hyperalgesia can be quantified by means of von Frey filaments of different strength stimulating the abdomen of the mice.
(§2) Male NMRI mice (28-38 g body weight) from a commercial breeder (Iffa Credo, France) were used. The animals were housed under standardized conditions: light/dark cycle (06.00-18.00 h light, 18.00-06.00 h dark), room temperature 20-24° C., relative air humidity 35-70%, 15 air changes per hour, air movement <0,2 m/sec, tap water and standard diet ad libitum, macrolon type 4 cages with maximally 30 animals per cage. There were at least 5 days between delivery and start of the experiment.
(§3) Tapentadol hydrochloride was dissolved in vehicle solution and injected intra-venously. • Doses: 2.15/ 4.64/ 10.0 mg/kg i.v. (prophylactic) 10.0/ 21.5/ 31.6 mg/kg i.v. (curative) • Administration volume: 10 ml/kg
(§4) Vehicle solution: 0.9% NaCl solution (Fresenius, Bad Homburg, FRG)
(§5) Mustard oil was dissolved in vehicle solution and administered intra-rectally Dose: 50 μl of a 3.5 Vol-% solution per animal • Vehicle solution: PEG 200
Animals were habituated to the test conditions for 20-30 min and stimulated with von Frey filaments onto the abdominal wall. 10 stimulations with von Frey filaments of 1, 4, 8, 16, and 32 mN were applied in ascending order (i.e. 10×1 mN, 10×4 mN, etc.). Animals with more than 25 positive reactions during this phase were excluded. […]
Tapentadol hydrochloride or vehicle was given intravenously (i.v.) 5 min before mustard oil. […] The following parameters were counted: […]

[5] = tested on: visceral hyperalgesia induced by rectal administration of mustard oil in mice; test: Mustard oil colitis (visceral pain), curative treatment; type: in vivo
Excerpt: as §1, §2, §3, §4, §5
Animals were habituated to the test conditions for 20-30 min and stimulated with von Frey filaments onto the abdominal wall. 10 stimulations with von Frey filaments of 1, 4, 8, 16, and 32 mN were applied in ascending order (i.e. 10×1 mN, 10×4 mN, etc.). Animals with more than 25 positive reactions during this phase were excluded. Vaseline was applied in the perianal area to avoid the stimulation of somatic areas with the irritant chemical. Colitis was induced by rectal administration of […] mustard oil (3.5%). Control animals were treated with vehicle (50 μl PEG200). Group sizes were n =7 for all experiments.
Tapentadol hydrochloride or vehicle was given intravenously (i.v.) 4 hours after mustard oil. Seven animals were tested per group. The following parameters were counted 10 minutes before and at different time points after administration of the test compound or vehicle: • 1. Referred allodynia (number of reactions): counting of withdrawal reactions against 10 stimulations with a 1 mN von Frey filament. • 2. Referred hyperalgesia (referred pain score): counting and scoring of withdrawal reactions against 10 stimulations with a 16 mN von Frey filament (Score 1-3, 1=lifting of abdomen, licking, movement, 2=extrusion or flinching of hind paws, slight jumping, strong licking, 3=strong jumping, vocalisation). Percent of maximal possible effect (% MPE) was calculated for each animal based on the baseline taken 10 min before administration of compound or vehicle.
Significance was calculated by paired T-test (* 0.05≥p>0.01; ** 0.01≥p>0.001; *** p≤0.001. ED50 values and 95% confidence intervals were calculated by linear regression.

recombinantly produced p-opioid receptor, sequence (P35372 whole entry): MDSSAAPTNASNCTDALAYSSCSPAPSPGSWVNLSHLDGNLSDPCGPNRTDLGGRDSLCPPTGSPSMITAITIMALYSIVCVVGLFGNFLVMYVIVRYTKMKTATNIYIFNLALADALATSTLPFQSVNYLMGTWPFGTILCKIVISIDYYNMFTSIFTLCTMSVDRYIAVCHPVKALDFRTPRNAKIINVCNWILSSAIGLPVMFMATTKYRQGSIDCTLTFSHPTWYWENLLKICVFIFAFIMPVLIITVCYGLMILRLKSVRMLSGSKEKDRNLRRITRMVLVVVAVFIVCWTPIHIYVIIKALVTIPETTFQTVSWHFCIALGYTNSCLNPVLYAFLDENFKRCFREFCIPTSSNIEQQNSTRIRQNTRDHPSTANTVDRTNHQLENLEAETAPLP

Compound	affinity, times less than that of morphine [1] [times]	pain-alleviating action relative to morphine [2]	IC50 ([3]; Cavia porcellus, electrically induced twitch contractions, cumulative application 3·10^−8 to 10^−5 M, mean ± s.e.m. of 4 experiments) [nM]	% reversal by naloxone ([3]; naloxone 10^−6 M added after the last application, without wash out) [%]	threshold concentration ([3]; reduction of electrically induced contractions)	Twitch contraction remaining at highest concentration (% of pre-value) ([3]; twitch reaction remaining at highest concentration 10^−5 M, mean ± s.e.m., hydrochloride) [% pre-value]	ED50 referred allodynia (95% confidence intervals) ([4]; 1 mN von Frey filament, 20-40 min after mustard oil)	ED50 referred hyperalgesia (95% confidence intervals) ([4]; 16 mN von Frey filament, 20-40 min after mustard oil)	ED50 spontaneous visceral pain behaviour (95% confidence intervals) ([4]; scored 2-12 min after mustard oil)	efficacy reached at highest dose ([5]; 31.6 mg/kg i.v.)	ED50 referred allodynia (95% confidence intervals) ([5]; i.v. 4 hours after mustard oil, 1 mN von Frey filament)	ED50 referred hyperalgesia (95% confidence intervals) ([5]; i.v. 4 hours after mustard oil, 16 mN von Frey filament)	duration of action in the referred hyperalgesia ([5]; i.v., time course)	time of maximal efficacy after administration ([5]; i.v., time course) [min]
CC[C@@H](c1cccc(O)c1)[C@@H](C)CN(C)C [tapentadol, (1R,2R)-3-(3-dimethylamino-1-ethyl-2-methyl-propyl)-phenol]	18	two to three times less than that of morphine												
CC[C@@H](c1cccc(O)c1)[C@@H](C)CN(C)C.Cl [tapentadol hydrochloride, (1 R,2R)-3-(3-dimethylamino-1-ethyl-2-methyl-propyl)-phenol hydrochloride]			1490 ± 200	33.3	about 10^−7 M	5.77±1.26	3.75 (2.76-4.75) mg/kg i.v.	3.93 (2.32-5.69) mg/kg i.v.	1.47 (0.51-2.28) mg/kg i.v.	Almost full efficacy	21.7 (19.3-25.0) mg/kg i.v.	16.3 (12.5-19.9) mg/kg i.v.	more than 2 h	20
